# Values quoted from earlier work as cited in US7449451B2, “Use of multiple antioxidant micronutrients as systemic biological radioprotective agents against potential ionizing radiation risks” (priority 2002, dated 2008).
# Key:
# [1] = in vivo
# mitotic cells = mitotic cells treated with cysteamine
# [2] = tested on: mammalian cells in culture
compound,measurement,setting,value
"N[C@@H](CCC(=O)N[C@@H](CS)C(=O)NCC(=O)O)C(=O)O [Glutathione, glutathione]",hydrolysis in the intestine when ingested,[1],completely hydrolyzed in the intestine
CC(=O)N[C@@H](CS)C(=O)O [N-acetylcysteine],intracellular levels of glutathione,glutathione,actively increase the intracellular levels of glutathione without causing any toxicity
same,tolerability in humans,human beings,tolerated by humans very well
O=C(O)CCCCC1CCSS1 (stereo not drawn) [alpha lipoic acid],intracellular levels of glutathione,glutathione,actively increase the intracellular levels of glutathione without causing any toxicity
same,tolerability in humans,human beings,tolerated by humans very well
NCCS [cysteamine],resistance of mitotic cells to radiation,mitotic cells,became very resistant to radiation
same,toxicity when administered to human beings,human beings; humans,extremely toxic
same,protection against bone marrow and gastrointestinal radiation syndromes,animals,"protects animals against bone marrow (2, 31) and gastrointestinal (32) radiation syndromes"
Cc1c(C)c2c(c(C)c1OC(=O)CCC(=O)O)CC[C@@](C)(CCC[C@H](C)CCC[C@H](C)CCCC(C)C)O2 [d-alpha tocopheryl succinate],radioprotectant value,animals and humans,marked radioprotectant value
same,reduction of radiation-induced transformation,[2],actively reduces the incidence of radiation-induced transformation
"CC1=C(/C=C/C(C)=C/C=C/C(C)=C/C=C/C=C(C)/C=C/C=C(C)/C=C/C2=C(C)CCCC2(C)C)C(C)(C)CCC1 [natural beta-carotene, beta-carotene]",radioprotectant value,animals and humans,marked radioprotectant value
same,reduction of radiation-induced transformation,[2],most effectively reduces radiation-induced transformation
calcium ascorbate [vitamin C],radioprotectant value,animals and humans,marked radioprotectant value
vitamin E,protection against lethal doses of cobalt-60,mice,good protection
